Experimental findings from patent US7964624B1, “Inhibitors of serine proteases” (priority 2005, dated 2011) are described below.

A value given as a limit tells only on which side of the number the result lay.

For one experiment, the target named is T1, HCV NS3 protease domain (Hepatitis C virus genotype 1b, UniProt Q9WMX2).
T1 construct: The first 181 amino acids of NS3 (residues 1027-1207 of the viral polyprotein); hexa-histidine (C); made in house; host or cells: E. coli BL21/DE3 pLysS
Nature of the experiment: biochemical. The following applies: Enzyme Assay 1 (HCV NS3 Protease Domain Peptide Cleavage Assay) activity, apparent Ki class.

The target of experiment [1] is T2, full-length hepatitis C viral protein NS3•4A (Hepatitis C virus genotype 1a, UniProt P27958).
T2 construct: hexa-histidine (N); made in house; host or cells: Sf9 insect cells (baculovirus, pVL1392)
Nature of the experiment: biochemical. On the set-up: species or system HCV sub-type strain 1a. The following applies: Enzyme Assay 2 (HCV NS3 Peptide Cleavage Assay) activity, apparent Ki class.

As to `CCC[C@H](NC(=O)[C@@H]1C[C@]2(CC(c3cc(Cl)c4c(c3)CCO4)=NO2)CN1C(=O)[C@@H](NC(=O)CC1CCCCC1)C(C)(C)C)C(=O)C(=O)NC1CC1` [Compound 499], the Ki (on HCV NS3 protease domain; in experiment [1]) was below 100 nM each time.

Consider `CCC[C@H](NC(=O)[C@@H]1C[C@]2(CC(c3cccc(Cl)c3)=NO2)CN1C(=O)[C@H](Cc1ccccc1F)NC(=O)CC1CCCCC1)C(=O)C(=O)NC1CC1` [Compound 338], for which the Ki was above 500 nM at HCV NS3 protease domain and 100 to 500 nM in experiment [1].

Consider `CCC[C@H](NC(=O)[C@@H]1C[C@]2(CC(c3cccc(Cl)c3)=NO2)CN1C(=O)[C@@H](NC(=O)CC1CCCCC1)C(C)(C)C)C(=O)C(=O)N1CC(C)(O)C1` [Compound 426], for which the Ki on HCV NS3 protease domain was above 500 nM; in experiment [1], 100 to 500 nM.

Turning to `CCC[C@H](NC(=O)[C@@H]1C[C@]2(CC(c3cccc(Cl)c3)=NO2)CN1C(=O)[C@@H](NC(C)=O)C(C)(C)C)C(=O)C(=O)NC1CC1` [Compound 12], the results for the Ki (on HCV NS3 protease domain; in experiment [1]) were 100 to 500 nM and below 100 nM, respectively.

As for `CCC[C@H](NC(=O)[C@@H]1C[C@]2(CC(c3cccc(Cl)c3)=NO2)CN1C(=O)[C@@H](NC(=O)CC1CCCCC1)C(C)(C)C)C(=O)C(=O)NCCc1cccc(OC)c1` [Compound 540], the Ki (at HCV NS3 protease domain; in experiment [1]) was 100 to 500 nM in each case.

Turning to `CCC[C@H](NC(=O)[C@@H]1C[C@]2(CC(c3cc(Cl)c(OC)cc3C)=NO2)CN1C(=O)[C@@H](NC(=O)CC1CCCCC1)C(C)(C)C)C(=O)C(=O)NC1CC1` [Compound 366], the Ki is 100 to 500 nM at HCV NS3 protease domain and below 100 nM in experiment [1].

With `C#CC[C@H](C(=O)N[C@H](C(=O)N1C[C@@]2(CC(c3cccc(Cl)c3)=NO2)C[C@H]1C(=O)N[C@@H](CCC)C(=O)C(=O)NC1CC1)C(C)(C)C)C1CCCCC1` [Compound 266], the Ki (on HCV NS3 protease domain; in experiment [1]) was 100 to 500 nM in each case.

`C=C[C@@H]1C[C@]1(NC(=O)[C@@H]1C[C@]2(CC(c3cccc(Cl)c3)=NO2)CN1C(=O)[C@@H](NC(=O)OC1CCCC1)C(C)(C)C)C(=O)NS(=O)(=O)C1CC1` [Compound 190]: the Ki on HCV NS3 protease domain is 100 to 500 nM; in experiment [1], below 100 nM.

On to `CCC[C@H](NC(=O)[C@@H]1C[C@]2(CC(c3cccc(Cl)c3)=NO2)CN1C(=O)[C@@H](NC(=O)CC1CCCCC1)C(C)(C)C)C(=O)C(=O)NCC1COc2ccccc2O1` (some centres unmarked) [Compound 141], for which the figures for the Ki (on HCV NS3 protease domain; in experiment [1]) were above 500 nM and 100 to 500 nM, respectively.

Regarding `CCC[C@H](NC(=O)[C@@H]1C[C@]2(CC(c3cccc(Cl)c3)=NO2)CN1C(=O)[C@@H](NC(=O)CC1CCCCC1)C(C)(C)C)C(=O)C(=O)Nc1cccc(NS(C)(=O)=O)c1` [Compound 148], the Ki (on HCV NS3 protease domain; in experiment [1]) was above 500 nM in each case.

With `COc1cc(OC)c(C2=NO[C@]3(C2)C[C@@H](C(=O)NC(CC2CCC2)C(=O)C(=O)NC2CC2)N(C(=O)[C@@H](NC(=O)CC2CCOCC2)C(C)(C)C)C3)cc1Cl` (some centres unmarked) [Compound 282], the Ki was above 500 nM at HCV NS3 protease domain and 100 to 500 nM in experiment [1].

As for `CCC[C@H](NC(=O)[C@@H]1C[C@]2(CC(c3cccc(Cl)c3)=NO2)CN1C(=O)[C@H](CC(C)C)NS(=O)(=O)c1ccc(OC)cc1)C(=O)C(=O)NC1CC1` [Compound 587], the results for the Ki (at HCV NS3 protease domain; in experiment [1]) were above 500 nM and 100 to 500 nM, respectively.

On to `CCOc1c(F)cc(C2=NO[C@]3(C2)C[C@@H](C(=O)N[C@@H](CC2CC2)C(=O)C(N)=O)N(C(=O)[C@@H](NC(=O)CC2CCOCC2)C(C)(C)C)C3)cc1Cl` [Compound 67], for which the Ki (on HCV NS3 protease domain; in experiment [1]) was below 100 nM in each case.

In the case of `C=C[C@@H]1C[C@]1(NC(=O)[C@@H]1C[C@]2(CC(c3cccc(Cl)c3)=NO2)CN1C(=O)[C@@H](NC(=O)OC(C)(C)C)C(C)(C)C)C(=O)O` [Compound 439], the Ki (at HCV NS3 protease domain; in experiment [1]) was above 500 nM throughout.

`CCC[C@H](NC(=O)[C@@H]1C[C@]2(CC(c3ccccc3)=NO2)CN1C(=O)[C@@H](NC(=O)CC1CCCCC1)C(C)(C)C)C(=O)C(=O)NC1CC1` [Compound 531]: the Ki (at HCV NS3 protease domain; in experiment [1]) was 100 to 500 nM throughout.

As to `CCC[C@H](NC(=O)[C@@H]1C[C@]2(CC(c3cccc(Cl)c3)=NO2)CN1C(=O)[C@@H](NC(=O)CC1CCCCC1)C(C)(C)C)C(=O)C(=O)NC(c1ccccc1)c1ccccn1` (some centres unmarked) [Compound 120], the Ki (at HCV NS3 protease domain; in experiment [1]) was above 500 nM each time.

As to `CCC[C@H](NC(=O)[C@@H]1C[C@]2(CC(c3cccc(Cl)c3)=NO2)CN1C(=O)[C@@H](NC(=O)CC1CCCCC1)C(C)(C)C)C(=O)C(=O)NCC1CC1` [Compound 265], the Ki at HCV NS3 protease domain is above 500 nM; in experiment [1], 100 to 500 nM.

As to `CCC[C@H](NC(=O)[C@@H]1C[C@]2(CC(c3cccc(Cl)c3)=NO2)CN1C(=O)[C@H](Cc1ccsc1)NC(=O)CC1CCCCC1)C(=O)C(=O)NC1CC1` [Compound 185], the results for the Ki (on HCV NS3 protease domain; in experiment [1]) were above 500 nM and 100 to 500 nM, respectively.

As to `CCCNC(=O)C(=O)[C@H](CCC)NC(=O)[C@@H]1C[C@]2(CC(c3cccc(Cl)c3)=NO2)CN1C(=O)[C@@H](NC(=O)CC1CCCCC1)C(C)(C)C` [Compound 508], the Ki (on HCV NS3 protease domain; in experiment [1]) was 100 to 500 nM each time.

`CCC[C@H](NC(=O)[C@@H]1C[C@]2(CC(c3cccc(Cl)c3)=NO2)CN1C(=O)[C@@H](NC(=O)[C@@H]1CCCN1C(=O)c1ccccc1)C(C)(C)C)C(=O)C(=O)NC1CC1` [Compound 26]: the Ki on HCV NS3 protease domain is 100 to 500 nM; in experiment [1], below 100 nM.

Take `CCC[C@H](NC(=O)[C@@H]1C[C@]2(CC(c3cccc(Cl)c3)=NO2)CN1C(=O)[C@@H](NC(=O)CC1CCCCC1)C(C)(C)C)C(=O)C(=O)Nc1ccc2c(C)cc(=O)[nH]c2c1` [Compound 181]: the Ki (at HCV NS3 protease domain; in experiment [1]) was above 500 nM throughout.

For the compound `CCC[C@H](NC(=O)[C@@H]1C[C@]2(CC(c3cccc(Cl)c3)=NO2)CN1C(=O)[C@@H](NC(=O)CC1CCCCC1)C(C)(C)C)C(=O)C(=O)N1CCCC1` [Compound 496], the Ki (on HCV NS3 protease domain; in experiment [1]) was above 500 nM in each case.

Consider `CCC[C@H](NC(=O)[C@@H]1C[C@]2(CC(c3cccc(Cl)c3)=NO2)CN1C(=O)CC(C)(C)C)C(=O)C(=O)NC1CC1` [Compound 351], for which the Ki (at HCV NS3 protease domain; in experiment [1]) was above 500 nM in each case.

With `CNC(=O)C(=O)C(CC1CCC1)NC(=O)[C@@H]1C[C@]2(CC(c3cccc(Cl)c3)=NO2)CN1C(=O)[C@@H](NC(=O)CC1CCOC(C)(C)C1)C(C)(C)C` (some centres unmarked) [Compound 419], the Ki (at HCV NS3 protease domain; in experiment [1]) was 100 to 500 nM throughout.

Regarding `CCC[C@H](NC(=O)[C@@H]1C[C@]2(CC(c3cccc(Cl)c3)=NO2)CN1C(=O)[C@@H](NC(=O)CC1CCCCC1)C(C)(C)C)C(=O)C(=O)Nc1cccc(C#N)c1` [Compound 588], the Ki (on HCV NS3 protease domain; in experiment [1]) was above 500 nM throughout.

Regarding `CCC[C@H](NC(=O)[C@@H]1C[C@]2(CC(c3cc(Cl)c4c(c3)CCCN4C)=NO2)CN1C(=O)[C@@H](NC(=O)CC1CCCCC1)C(C)(C)C)C(=O)C(=O)NC1CC1` [Compound 430], the Ki at HCV NS3 protease domain is 100 to 500 nM; in experiment [1] it was below 100 nM.

Turning to `CCC[C@H](NC(=O)[C@@H]1C[C@]2(CC(c3cccc(Cl)c3)=NO2)CN1C(=O)C(NS(=O)(=O)c1ccccc1)c1ccccc1)C(=O)C(=O)NC1CC1` (some centres unmarked) [Compound 501], the Ki (at HCV NS3 protease domain; in experiment [1]) was above 500 nM each time.

With `CCC[C@H](NC(=O)[C@@H]1C[C@]2(CC(c3cccc(Cl)c3)=NO2)CN1C(=O)[C@@H](NC(=O)CC1CCCCC1)C(C)(C)C)C(=O)C(=O)NCCc1c[nH]c2ccc(OC)cc12` [Compound 302], the Ki (at HCV NS3 protease domain; in experiment [1]) was 100 to 500 nM in each case.

For `CC(C)(C)OC(=O)N[C@H]1CCCCC/C=C\[C@@H]2C[C@@]2(C(=O)O)NC(=O)[C@@H]2C[C@]3(CC(C(=O)c4ccccc4)=NO3)CN2C1=O` [Compound 320], the Ki (on HCV NS3 protease domain; in experiment [1]) was above 500 nM each time.

Consider `CCC[C@H](NC(=O)[C@@H]1C[C@]2(CC(c3cccc(Cl)c3)=NO2)CN1C(=O)CN1C(=O)OC[C@@H]1c1ccccc1)C(=O)C(=O)NC1CC1` [Compound 397], for which the Ki (at HCV NS3 protease domain; in experiment [1]) was above 500 nM each time.

For the compound `CCC[C@H](NC(=O)[C@@H]1C[C@]2(CC(c3cc(F)c(OCC)c(Cl)c3)=NO2)CN1C(=O)[C@@H](NC(=O)CC1CCCCC1)C(C)(C)C)C(=O)C(=O)NC1CC1` [Compound 136], the Ki (at HCV NS3 protease domain; in experiment [1]) was 100 to 500 nM each time.

Turning to `CCC[C@H](NC(=O)[C@@H]1C[C@]2(CC(c3cccc(Cl)c3)=NO2)CN1C(=O)[C@@H](NC(=O)CC1CCCCC1)C(C)(C)C)C(=O)C(=O)NCc1cc(OC)cc(OC)c1` [Compound 127], the Ki (on HCV NS3 protease domain; in experiment [1]) was 100 to 500 nM each time.

`CCC[C@H](NC(=O)[C@@H]1C[C@]2(CC(c3cccc(Cl)c3)=NO2)CN1C(=O)[C@@H](NC(=O)CC1CCCCC1)C(C)(C)C)C(=O)C(=O)NCc1cccc(-n2cccn2)c1` [Compound 298]: the Ki (at HCV NS3 protease domain; in experiment [1]) was 100 to 500 nM each time.

On to `CCC[C@H](NC(=O)[C@@H]1C[C@]2(CC(c3cccc(Cl)c3)=NO2)CN1C(=O)[C@@H](NC(=O)CC1CCCCC1)C(C)(C)C)C(=O)C(=O)N[C@@H](C)c1ccccc1` [Compound 546], for which the Ki (on HCV NS3 protease domain; in experiment [1]) was 100 to 500 nM in each case.

On to `CCC[C@H](NC(=O)[C@@H]1C[C@]2(CC(CC)=NO2)CN1C(=O)[C@@H](NC(=O)NC(C)(C)C)C(C)(C)C)C(=O)C(=O)NC1CC1` [Compound 559], for which the Ki (on HCV NS3 protease domain; in experiment [1]) was above 500 nM throughout.

For `CC(C)(C)OC(=O)N[C@H]1CCCCC/C=C\[C@@H]2C[C@@]2(C(=O)NS(=O)(=O)C2CC2)NC(=O)[C@@H]2C[C@]3(CC(C(=O)c4ccccc4)=NO3)CN2C1=O` [Compound 163], the Ki (on HCV NS3 protease domain; in experiment [1]) was below 100 nM each time.

Turning to `CCC[C@H](NC(=O)[C@@H]1C[C@]2(CC(c3cccc(Cl)c3)=NO2)CN1C(=O)CCCC(=O)Nc1ccc(C)cc1C)C(=O)C(=O)NC1CC1` [Compound 246], the Ki (at HCV NS3 protease domain; in experiment [1]) was above 500 nM in each case.
